Test results reported in patent publication US9890126B2 (priority 2012, dated 2018).
Where two headings read alike, the source gives them in different places. Marks after values point to notes of the source that are not given here.

Assays:
[1] = target: IspF (Burkholderia pseudomallei, UniProt Q3JRA0); test: biochemical; type: binding
[2] = system: Burkholderia
[3] = system: B. pseudomallei; type: cell-based, Burkholderia pseudomallei; conditions: for concentration effects on growth of B. pseudomallei over time: 1 mM to 31.25 μM, FIGS. 3-10, strains 1026b and 340
[4] = system: Plasmodium falciparum; test: Antimalarial initial tests, three strains of drug resistant malaria; conditions: all three strains of drug resistant malaria
[5] = system: Burkholderia; test: microbe, parasite or virus in culture; conditions: read-out: inhibition against Burkholderia
[6] = relative to DMSO control, 0.00 = growth with inhibitor equal to or greater than DMSO control

Sequence of IspF (Q3JRA0 whole entry, looked up): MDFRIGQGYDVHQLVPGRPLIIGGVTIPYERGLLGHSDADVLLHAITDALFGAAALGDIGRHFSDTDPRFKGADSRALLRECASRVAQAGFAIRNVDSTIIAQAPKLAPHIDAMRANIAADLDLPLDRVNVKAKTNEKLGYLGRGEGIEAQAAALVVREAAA

Structure (SMILES) | Kd ([1]; pH 7.4) | % Growth Inhibition Endpoint (24 h) [2, 6] | also measured
Oc1ccc(-c2cncn2CCc2c[nH]c3ccccc23)cc1 [HGN-0020] |  |  | Kd [1]: 204 µM; % Growth Inhibition Growth Curve [2, 6]: 1.26 ± 2.33%
O=C([O-])c1cnc(NCCc2ccc(Cl)cc2)nc1[O-].[Na+].[Na+] [HGN-0028] |  |  | Kd [1]: 305 µM; concentration effects on growth of B. pseudomallei over time [3]: dose dependent; growth of B. pseudomallei over time ([3]; FIG. 2): inhibited the growth; B. pseudomallei growth inhibition at lower concentrations ([3]; lower concentrations): did not inhibit; % Growth Inhibition Growth Curve [2, 6]: 68.20 ± 2.12%
Oc1ccc(-n2ccnc2)cc1 [HGN-0029] |  |  | concentration effects on growth of B. pseudomallei over time [3]: did not inhibit the growth; % Growth Inhibition Growth Curve [2, 6]: 23.58 ± 0.54%
O=C(O)c1cnc(Nc2ccc(-c3ccccc3)cc2)[nH]c1=O [HGN-0035, 2-((1,1′-biphenyl)-4-ylamino)-6-oxo-1,6-dihydropyrimidine-5-carboxylic acid] | not soluble | 91.14 ± 1.18% | 
CCOC(=O)c1cnc(Nc2ccc(N3CCOCC3)cc2)[nH]c1=O [HGN-0037] | not soluble |  | % Growth Inhibition Endpoint (24 h) ([2]; cells printing symbol L): L^c
CCOC(=O)c1cnc(NCCc2ccc(Cl)cc2)[nH]c1=O [HGN-0038, Ethyl 2-((4-chlorophenethyl)amino)-6-oxo-1,6-dihydropyrimidine-5-carboxylate] | not soluble | 0.00^b % | 
CCOC(=O)c1cnc(Nc2cccc(-c3ccccc3)c2)[nH]c1=O [HGN-0039] | non specific | 0.00^b % | 
CCOC(=O)c1cnc(Nc2ccc3cn[nH]c3c2)[nH]c1=O [HGN-0040, Ethyl 2-((1H-indazol-6-yl)amino)-6-oxo-1,6-dihydropyrimidine-5-carboxylate] | no binding | 16.39 ± 6.29% | 
CCOC(=O)c1cnc(Nc2ccc(CC(=O)O)cc2)[nH]c1=O [HGN-0041, 2-(4-((5-(ethoxycaronyl)-6-oxo-1,6-dihydropyrimidin-2-yl)amino)phenyl)acetic acid] | not soluble | 0.00^b % | 
CCOC(=O)c1cnc(Nc2ccc3[nH]ncc3c2)[nH]c1=O [HGN-0042, Ethyl 2-((1H-indazol-5-yl)amino)-6-oxo-1,6-dihydropyrimidine-5-carboxylate] | not soluble | 20.70 ± 0.71% | 
O=C([O-])c1cnc(Nc2ccc3cn[nH]c3c2)nc1[O-].[Na+].[Na+] [HGN-0045, Sodium 2-((1H-indazol-6-yl)amino)-4-oxoidopyrimidine-5-carboxylate] | non specific | 0.00^b % | 
O=C([O-])c1cnc(Nc2ccc3[nH]ncc3c2)nc1[O-].[Na+].[Na+] [HGN-0046, Sodium 2-((1H-indazol-5-yl)amino)-4-oxoidopyrimidine-5-carboxylate] | non specific | 15.12 ± 4.25% | 
O=C([O-])c1cnc(NCc2ccco2)nc1[O-].[Na+].[Na+] [HGN-0049] |  | 12.25 ± 0.40% | antimalarial potency in initial tests [4]: submicromolar
Oc1ccc(-c2cncn2CCc2ccc(Cl)cc2)cc1 [HGN-0051] |  | 0.00^b % | antimalarial potency in initial tests [4]: potent
O=C(O)c1cnc(NCCc2ccc(Cl)cc2Cl)nc1O [HGN-0118] |  |  | inhibition at 1000 µM [5]: 94.5%
